Data from patent publication US8461328B2, “Tricyclic heterocyclic compounds, compositions and methods of use thereof” (Genentech, Inc., priority 2010, dated 2013).
Like-named read-outs stand apart in the source and are kept apart here.

Experiments:
Format in all cases: biochemical
[1] = biological target: T1, JAK2 (Homo sapiens, UniProt O60674); assay: JAK2 inhibition (Table 4)
T1 construct: made in house; host or cells: SF9 insect cells (baculovirus)

[2] = biological target: T2, JAK3 (Homo sapiens, UniProt P52333); assay: JAK3 inhibition (Table 4); details: read-out: JAK3 Ki
T2 construct: made in house; host or cells: SF9 insect cells (baculovirus)
T2 sequence (P52333 783-1124): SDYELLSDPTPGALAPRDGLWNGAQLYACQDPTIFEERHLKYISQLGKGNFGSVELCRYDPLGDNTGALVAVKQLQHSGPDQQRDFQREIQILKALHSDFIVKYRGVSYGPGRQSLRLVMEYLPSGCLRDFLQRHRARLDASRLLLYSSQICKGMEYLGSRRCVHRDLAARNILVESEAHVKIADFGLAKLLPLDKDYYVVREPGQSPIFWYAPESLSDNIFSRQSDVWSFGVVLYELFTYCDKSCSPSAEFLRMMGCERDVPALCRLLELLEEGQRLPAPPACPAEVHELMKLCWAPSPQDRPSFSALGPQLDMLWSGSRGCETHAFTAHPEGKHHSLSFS

[3] = biological target: T3, TYK2 (Homo sapiens, UniProt P29597); assay: TYK2 inhibition (Table 4)
T3 construct: made in house; host or cells: SF9 insect cells (baculovirus)
T3 sequence (P29597 873-1187): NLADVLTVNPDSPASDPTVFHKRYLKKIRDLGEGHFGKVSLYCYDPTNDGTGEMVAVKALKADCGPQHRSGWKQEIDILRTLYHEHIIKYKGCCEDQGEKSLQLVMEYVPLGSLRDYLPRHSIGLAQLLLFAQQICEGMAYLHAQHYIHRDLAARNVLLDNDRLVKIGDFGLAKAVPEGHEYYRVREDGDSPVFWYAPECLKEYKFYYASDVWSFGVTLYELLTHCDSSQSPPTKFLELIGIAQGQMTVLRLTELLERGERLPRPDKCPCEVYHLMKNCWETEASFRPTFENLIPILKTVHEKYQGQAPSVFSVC

T1 sequence (O60674 812-1132): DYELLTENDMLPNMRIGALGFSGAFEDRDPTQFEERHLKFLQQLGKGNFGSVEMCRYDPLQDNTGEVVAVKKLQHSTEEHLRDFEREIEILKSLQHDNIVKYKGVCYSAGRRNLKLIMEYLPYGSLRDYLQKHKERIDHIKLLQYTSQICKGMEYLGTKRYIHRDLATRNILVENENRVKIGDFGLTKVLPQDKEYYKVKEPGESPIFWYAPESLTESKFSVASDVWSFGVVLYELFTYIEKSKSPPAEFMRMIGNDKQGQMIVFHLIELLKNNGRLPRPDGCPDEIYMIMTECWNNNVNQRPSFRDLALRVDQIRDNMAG

| Ki ([1]; read-out: JAK2 Ki) [nM] | Ki [2] [nM] | Ki [3] [nM] | Structure (SMILES) | Ki ([1]; JAK2 Ki) [nM] |
| --- | --- | --- | --- | --- |
| 11.5 | 47.4 | 36.4 | N#CCCN[C@H]1CC[C@H](n2cnc3cnc4[nH]ccc4c32)CC1 [Example 275, 3-[4-(6H-1,3,5,6-Tetraaza-as-indacen-1-yl)-cyclohexylamino]-propionitrile] | – |
| 11.9 | 206 | 110 | CC(C)(C)OC(=O)N[C@H]1CC[C@@H](n2cnc3cnc4[nH]ccc4c32)CC1 [Example 288, [4-(6H-1,3,5,6-Tetraaza-as-indacen-1-yl)-cyclohexyl]-carbamic acid tert-butyl ester] | – |
| 80.2 | 79.5 | 107 | N[C@H]1CC[C@@H](n2cnc3cnc4[nH]ccc4c32)CC1 [Example 289, 4-(6H-1,3,5,6-Tetraaza-as-indacen-1-yl)-cyclohexylamine] | – |
| 14.1 | 91.6 | 59.8 | COC(=O)N[C@H]1CC[C@H](n2cnc3cnc4[nH]ccc4c32)CC1 [Example 311, [4-(6H-1,3,5,6-Tetraaza-as-indacen-1-yl)-cyclohexyl]-carbamic acid methyl ester] | – |
| 1100 | 976 | 1900 | CC1(n2cnc3cnc4[nH]ccc4c32)CCNCC1 [Example 318, 1-(4-Methyl-piperidin-4-yl)-1,6-dihydro-1,3,5,6-tetraaza-as-indacene] | – |
| 31.2 | 82.9 | 77.8 | N#CCCN[C@H]1CC[C@@H](n2cnc3cnc4[nH]ccc4c32)CC1 [Example 319, 3-[4-(6H-1,3,5,6-Tetraaza-as-indacen-1-yl)-cyclohexylamino]-propionitrile] | – |
| 9.47 | 56.1 | 38.5 | CS(=O)(=O)N[C@H]1CC[C@@H](n2cnc3cnc4[nH]ccc4c32)CC1 [Example 321, N-[4-(6H-1,3,5,6-Tetraaza-as-indacen-1-yl)-cyclohexyl]-methanesulfonamide] | – |
| 25.5 | 84.8 | 426 | CC1(n2cnc3cnc4[nH]ccc4c32)CCN(Cc2cncnc2)CC1 [Example 322, 1-(4-Methyl-1-pyrimidin-5-ylmethyl-piperidin-4-yl)-1,6-dihydro-1,3,5,6-tetraaza-as-indacene] | – |
| 122 | 269 | 271 | CC1(n2cnc3cnc4[nH]ccc4c32)CCN(CCC#N)CC1 [Example 330, 3-[4-Methyl-4-(6H-1,3,5,6-tetraaza-as-indacen-1-yl)-piperidin-1-yl]-propionitrile] | – |
| 7.95 | 71.4 | 31.1 | CC1(n2cnc3cnc4[nH]ccc4c32)CCN(S(C)(=O)=O)CC1 [Example 332, 1-(1-Methanesulfonyl-4-methyl-piperidin-4-yl)-1,6-dihydro-1,3,5,6-tetraaza-as-indacene] | – |
| 64.4 | 154 | 422 | Cn1ccnc1CCc1nc2cnc3[nH]ccc3c2n1C1CCN(CCC#N)CC1 [Example 411, 3-(4-{2-[2-(1-Methyl-1H-imidazol-2-yl)-ethyl]-6H-1,3,5,6-tetraaza-as-indacen-1-yl}-piperidin-1-yl)-propionitrile] | – |
| 28.3 | 61.7 | 22 | CCS(=O)(=O)NCCc1nc2cnc3[nH]ccc3c2n1C1CCCCC1 [Example 512, Ethanesulfonic acid [2-(1-cyclohexyl-1,6-dihydro-1,3,5,6-tetraaza-as-indacen-2-yl)-ethyl]-amide] | – |
| 24.3 | 28.2 | 15.8 | CS(=O)(=O)NCCc1nc2cnc3[nH]ccc3c2n1C1CCCCC1 [Example 514, N-[2-(1-Cyclohexyl-1,6-dihydro-1,3,5,6-tetraaza-as-indacen-2-yl)-ethyl]-methanesulfonamide] | – |
| 21.1 | 197 | 101 | CC(C)C(=O)N[C@H]1CC[C@H](n2cnc3cnc4[nH]ccc4c32)CC1 [Example 571, trans N-[4-(6H-1,3,5,6-Tetraaza-as-indacen-1-yl)-cyclohexyl]-isobutyramide] | – |
| 54.6 | 232 | 125 | c1cc2c(ncc3ncn([C@H]4CC[C@H](NCC5CC5)CC4)c32)[nH]1 [Example 574, trans Cyclopropylmethyl-[4-(6H-1,3,5,6-tetraaza-as-indacen-1-yl)-cyclohexyl]-amine] | – |
| 22.7 | 334 | 76.6 | c1cc2c(ncc3ncn([C@H]4CC[C@H](N5CCOCC5)CC4)c32)[nH]1 [Example 594, Trans 1-(4-Morpholin-4-yl-cyclohexyl)-1,6-dihydro-1,2,3,5,6-tetraaza-as-indacene] | – |
| 5.51 | 67.4 | 17.4 | N#C[C@@H]1CCN([C@H]2CC[C@H](n3cnc4cnc5[nH]ccc5c43)CC2)C1 [Example 596, Trans (R)-1-[4-(6H-1,2,3,5,6-tetraaza-as-indacen-1-yl)-cyclohexyl]-pyrrolidine-3-carbonitrile] | – |
| 3.5 | 36.8 | 13.7 | Cc1nc2cnc3[nH]ccc3c2n1[C@H]1CC[C@H](C(C)(C)O)CC1 [Example 632, 2-[4-(2-Methyl-6H-1,2,3,5,6-tetraaza-as-indacen-1-yl)-cyclohexyl]-propan-2-ol] | – |
| 77.7 | 150 | 70.7 | COC[C@H]1CC[C@H](n2c(CNS(C)(=O)=O)nc3cnc4[nH]ccc4c32)CC1 [Example 638, Trans N-[1-(4-methoxymethyl-cyclohexyl)-1,6-dihydro-1,2,3,5,6-tetraaza-as-indacen-2-ylmethyl]-methanesulfonamide] | – |
| 46.6 | 68.4 | 118 | CS(=O)(=O)NCc1nc2cnc3[nH]ccc3c2n1C1CCN(CC(F)(F)F)CC1 [Example 692, N-{1-[1-(2,2,2-Trifluoro-ethyl)-piperidin-4-yl]-1,6-dihydro-1,2,3,5,6-tetraaza-as-indacen-2-ylmethyl}-methanesulfonamide] | – |
| 72.1 | 303 | 332 | CC(C)(CF)N1CCC(n2c(CNS(C)(=O)=O)nc3cnc4[nH]ccc4c32)CC1 [Example 693, N-{1-[1-(2-Fluoro-1,1-dimethyl-ethyl)-piperidin-4-yl]-1,6-dihydro-1,2,3,5,6-tetraaza-as-indacen-2-ylmethyl}-methanesulfonamide] | – |
| 97.2 | 240 | 264 | CC1(n2cnc3cnc4[nH]ccc4c32)CCN(CC(F)(F)F)CC1 [Example 752, 1-[4-Methyl-1-(2,2,2-trifluoro-ethyl)-piperidin-4-yl]-1,6-dihydro-1,3,5,6-tetraaza-as-indacene] | – |
| 238 | 910 | 843 | c1cc2c(ncc3ncn(C4CCC(N5CCOCC5)CC4)c32)[nH]1 (stereo not drawn) [Example 775, 1-(4-Morpholin-4-yl-cyclohexyl)-1,6-dihydro-1,3,5,6-tetraaza-as-indacene] | – |
| 117 | 493 | 112 | CS(=O)(=O)NCc1nc2cnc3[nH]ccc3c2n1[C@H]1CCCOC1 [Example 855, (S)—N-[1-(Tetrahydro-pyran-3-yl)-1,6-dihydro-1,3,5,6-tetraaza-as-indacen-2-ylmethyl]-methanesulfonamide] | – |
| 604 | 1110 | 1060 | CS(=O)(=O)NCc1nc2cnc3[nH]ccc3c2n1[C@@H]1CCCOC1 [Example 866, (R)—N-[1-(Tetrahydro-pyran-3-yl)-1,6-dihydro-1,3,5,6-tetraaza-as-indacen-2-ylmethyl]-methanesulfonamide] | – |
| 162 | 242 | 114 | CS(=O)(=O)NCc1nc2cnc3[nH]ccc3c2n1C1CCCC1 [Example 874, N-(1-Cyclopentyl-1,6-dihydro-1,3,5,6-tetraaza-as-indacen-2-ylmethyl)-methanesulfonamide] | – |
| 54.7 | 61.4 | 116 | CS(=O)(=O)NCc1nc2cnc3[nH]ccc3c2n1C1CCN(CCF)CC1 [Example 913, N-{1-[1-(2-Fluoro-ethyl)-piperidin-4-yl]-1,6-dihydro-1,3,5,6-tetraaza-as-indacen-2-ylmethyl}-methanesulfonamide] | – |
| 35.4 | 60.6 | 40.3 | CS(=O)(=O)NCc1nc2cnc3[nH]ccc3c2n1C1CCN(CC(F)F)CC1 [Example 914, N-{1-[1-(2,2-Difluoro-ethyl)-piperidin-4-yl]-1,6-dihydro-1,3,5,6-tetraaza-as-indacen-2-ylmethyl}-methanesulfonamide] | – |
| 73.6 | 65 | 112 | CC1CCCCC1n1c(CNS(C)(=O)=O)nc2cnc3[nH]ccc3c21 (stereo not drawn) [Example 917, N-[1-(2-Methyl-cyclohyl)-1,6-dihydro-1,3,5,6-tetraaza-as-indacen-2-ylmethyl]-methanesulfonamide] | – |

| Structure (SMILES) | Ki ([1]; read-out: JAK2 Ki) [nM] | Ki [2] [nM] | Ki [3] [nM] | Ki ([1]; JAK2 Ki) [nM] |
| --- | --- | --- | --- | --- |
| C[C@@H](O)c1nc2cnc3[nH]ccc3c2n1C1CCCCC1 [Example 671, (R)-1-(1-Cyclohexyl-1,6-dihydro-1,2,3,5,6-tetraaza-as-indacen-2-yl)-ethanol] | 18.1 | 22.4 | 2.47 | – |
| C[C@@H](O)c1nc2cnc3[nH]ccc3c2n1C1CCCCC1 [Example 672, (R)-1-(1-Cyclohexyl-1,6-dihydro-1,2,3,5,6-tetraaza-as-indacen-2-yl)-ethanol-d11] | 19.8 | 17.2 | 3.01 | – |
| CS(=O)(=O)NCc1nc2cnc3[nH]ccc3c2n1C1CC2CCC1C2 (stereo not drawn) [Example 894, N-(1-Bicyclo[2.2.1]hept-2-yl-1,6-dihydro-1,3,5,6-tetraaza-as-indacen-2-ylmethyl)-methanesulfonamide] | – | 37.4 | 6.46 | 6.18 |
